Results published in paper PMC8781988, “Phloroglucinol as a Potential Candidate against Trypanosoma congolense Infection: Insights from In Vivo, In Vitro, Molecular Docking and Molecular Dynamic Simulation Analyses” (Molecules, 2022).
pKi: −log10 of the molar value.

Molecular target: T1, T. congolense sialidase (EC 3.2.1.18)
T1 construct: native bloodstream-form enzyme, isolated and partially purified on a DEAE cellulose column
Assay: enzyme inhibition kinetics (fetuin substrate, thiobarbituric acid assay, double reciprocal plot) with partially purified enzyme
Type: biochemical, Trypanosoma congolense

Compound Oc1cc(O)cc(O)c1 [phloroglucinol] has a pKi of 6.74.
